{"source": "paper PMC9475553", "about": "“SHF Acts as a Novel Tumor Suppressor in Glioblastoma Multiforme by Disrupting STAT3 Dimerization” (Advanced Science, 2022)", "biological_target": "immobilized STAT3 (Homo sapiens, UniProt P40763)", "sequence (P40763 whole entry, the tested form may be a part)": "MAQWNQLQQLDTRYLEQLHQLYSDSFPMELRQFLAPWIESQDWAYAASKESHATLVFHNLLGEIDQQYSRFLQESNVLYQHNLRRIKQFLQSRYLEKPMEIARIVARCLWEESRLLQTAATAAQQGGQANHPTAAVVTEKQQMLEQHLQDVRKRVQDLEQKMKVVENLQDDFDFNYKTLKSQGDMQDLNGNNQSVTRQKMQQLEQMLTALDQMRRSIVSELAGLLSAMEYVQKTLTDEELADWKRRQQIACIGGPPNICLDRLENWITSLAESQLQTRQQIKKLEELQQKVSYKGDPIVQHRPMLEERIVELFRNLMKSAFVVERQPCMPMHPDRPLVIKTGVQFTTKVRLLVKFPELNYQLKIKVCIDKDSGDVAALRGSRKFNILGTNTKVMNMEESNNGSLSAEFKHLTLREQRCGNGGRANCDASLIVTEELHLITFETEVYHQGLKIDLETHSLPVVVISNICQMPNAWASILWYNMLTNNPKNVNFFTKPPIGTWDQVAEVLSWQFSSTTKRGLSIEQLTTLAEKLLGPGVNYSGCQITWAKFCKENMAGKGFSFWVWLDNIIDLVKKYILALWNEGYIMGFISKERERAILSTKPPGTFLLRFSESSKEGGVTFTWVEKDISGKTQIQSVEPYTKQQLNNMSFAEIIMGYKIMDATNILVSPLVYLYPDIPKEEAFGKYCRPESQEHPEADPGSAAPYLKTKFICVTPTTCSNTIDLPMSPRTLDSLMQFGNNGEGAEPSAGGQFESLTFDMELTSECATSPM", "assay": "Static adsorption equilibrium assay, immobilized STAT3", "format": "binding", "details": "immobilized STAT3 85 nmol g^−1 wet gel; peptide 2-20 µM in PBS, stirred 12 h; free peptide by NanoDrop absorbance 240 nm; Langmuir isotherm; mean ± SD; read-out: equilibrium dissociation constant KD", "source_text": "Considering that the SH2 domain predominantly represents the inhibition of SHF on STAT3 dimerization and activity, we speculated that this domain may be an optional target for GBM suppression. To this end, we analyzed the mechanical interaction of SHF and STAT3. The structures of human SHF (aa265‐421) and STAT3 (aa130‐715). both of which spanned their respective SH2 domain. were simulated by Swiss‐Model server (https://swissmodel.expasy.org/). To simulate the interaction of SHF and STAT3, Discovery studio 2018 was employed to complete protein‐protein docking using ZDOCK as an initial stage. A rigid body molecular docking algorithm utilizing a fast Fourier transform (FFT) algorithm was used to further improve performance for searching in translational space. All the available structures from PDB were used to calculate the docking poses and the structures obtained were subjected to energy minimization filtration using the smart minimize algorithm (Max steps 200, RMS gradient 0.01). The highest resulting ZDock score was used as the appropriate conformational pose. […] Since these two spots are located closely to one another, the sequence spanning amino acids 388–421 was used as a peptide design master. To obtain a peptide with high internalization efficiency and a strong half‐life, we introduced a palmitic acid at the N‐terminus of the master sequence and amidated the C‐terminus. The designed peptide was named C16. A scrambled peptide containing a scrambled sequence targeting Spot1 was named SC and served as a negative control peptide. […] The static adsorption equilibrium experiment of immobilized STAT3 peptide was used to detect the binding rate of the synthesized peptide with STAT3 (Figure 7C). The concentration of immobilized STAT3 used was 85 nmol g^−1 wet gel. […] Thus, C16 acted as a powerful inhibitor of STAT3 dimerization and associated activity. Next, we determined the implication of C16 in tumor inhibition. […] A concentration of 25 uM was determined to be adequate for use in the subsequent experiments. […] Further, the impact of C16 on tumor propagation was examined in an intracranial xenograft model. U87 cells expressing luciferase were implanted into mouse brains. The mice were injected intraperitoneally (i.p.) with C16 or SC once every 2 days from the third day after cell transplantation. […] To investigate the effect of C16 on cell proliferation, EdU was injected 24 h prior to sacrifice.\nFigure 7 Peptide derived from the STAT3‐binding sites of SHF is an effective GBM suppressive strategy. A) Binding model between SHF and STAT3 using ZDOCK server. […] B) IF staining determined the cell penetrability and nuclear‐localization of C16. U251 cells were incubated with C16 or SC for 2 h and performed IF staining using the indicated antibodies. Bars, 10 µm. C) The statical analysis of adsorption equilibrium assay detecting the binding of C16 and SC with recombinant STAT3. D) Pull‐down assay indicating C16 binds STAT3. GST‐STAT3 was incubated with C16 or SC for 2 h, and the pull‐down assay was performed using Anti‐His magnetic beads. E) IP assay showing the effect of C16 on STAT3 dimerization. 293T cells transfected with indicated vectors were incubated with C16 for 2 h. The relative quantification of STAT3 dimerization was listed. F) IP assay detecting the effect of C16 on the interaction of STAT3 and DNMT1. […] The relative quantification of STAT3/DNMT1 interaction was listed. […] The relative quantification of STAT3/DNMT1 interaction was listed. […]", "note": "No end group written: not given here."}
{"sequence": "PASSNCEIVPMYHIRKLPIKGAEHMSLLYPVAIR [SC, reference compound]", "values": [{"measurement": "Kd", "value": "4.08 ± 0.63", "unit": "µM"}]}
